Test results from BindingDB's records for doi:10.1016/j.chembiol.2004.03.022 (Cyclacel, 2004).

Columns and labels:
Assay in all cases: Kinase Inhibition Assay
[1] = target: Cyclin-dependent kinase 2 (Homo sapiens, UniProt P24941)
From the text: (§1) In vitro kinase inhibition assay.

[2] = target: Cyclin-dependent kinase 4 (Homo sapiens, UniProt P11802)
From the text: as §1

G1/S-specific cyclin-D1 = G1/S-specific cyclin-D1 (Homo sapiens, UniProt P24385)
From the text: as §1

G1/S-specific cyclin-E1 = G1/S-specific cyclin-E1 (Homo sapiens, UniProt P24864)
From the text: as §1

Sequence of G1/S-specific cyclin-D1 (P24385 whole entry): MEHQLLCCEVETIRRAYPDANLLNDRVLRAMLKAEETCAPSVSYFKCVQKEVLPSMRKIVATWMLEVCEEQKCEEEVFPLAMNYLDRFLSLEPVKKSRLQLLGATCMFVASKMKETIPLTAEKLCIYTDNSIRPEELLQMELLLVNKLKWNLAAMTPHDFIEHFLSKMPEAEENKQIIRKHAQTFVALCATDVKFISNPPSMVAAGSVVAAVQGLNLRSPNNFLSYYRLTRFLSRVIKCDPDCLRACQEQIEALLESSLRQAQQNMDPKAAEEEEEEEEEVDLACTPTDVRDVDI
Sequence of G1/S-specific cyclin-E1 (P24864 whole entry): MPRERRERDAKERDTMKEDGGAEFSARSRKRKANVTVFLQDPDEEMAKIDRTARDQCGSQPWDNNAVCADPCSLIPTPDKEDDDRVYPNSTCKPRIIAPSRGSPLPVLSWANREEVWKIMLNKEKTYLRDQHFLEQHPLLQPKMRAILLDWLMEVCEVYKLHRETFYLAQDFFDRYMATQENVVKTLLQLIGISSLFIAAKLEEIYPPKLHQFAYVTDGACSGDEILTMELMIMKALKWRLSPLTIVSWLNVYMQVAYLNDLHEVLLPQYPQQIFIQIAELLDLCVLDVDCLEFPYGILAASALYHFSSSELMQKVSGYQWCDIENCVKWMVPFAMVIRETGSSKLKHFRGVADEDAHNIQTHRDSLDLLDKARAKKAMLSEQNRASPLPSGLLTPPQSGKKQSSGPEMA
Sequence of Cyclin-dependent kinase 4 (P11802 whole entry): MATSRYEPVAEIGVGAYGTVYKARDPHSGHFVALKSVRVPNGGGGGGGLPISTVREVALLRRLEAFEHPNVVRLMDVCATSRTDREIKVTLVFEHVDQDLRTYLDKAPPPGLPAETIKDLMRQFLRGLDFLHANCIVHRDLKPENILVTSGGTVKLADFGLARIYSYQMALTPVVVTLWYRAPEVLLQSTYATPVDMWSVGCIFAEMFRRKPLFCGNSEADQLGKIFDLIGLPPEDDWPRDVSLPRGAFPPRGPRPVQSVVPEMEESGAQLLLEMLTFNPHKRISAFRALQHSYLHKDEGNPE

Structure (SMILES)	IC50 [1]	IC50 [2]	IC50 (G1/S-specific cyclin-D1)	IC50 (G1/S-specific cyclin-E1)
O=C1c2ccccc2-[n+]2ccc3c([nH]c4ccccc43)c21	> 50000 nM	350 nM	–	–
Cc1nc(N)sc1-c1ccnc(Nc2ccc(N3CCOCC3)cc2)n1 [2-amino-4-methyl-1,3-thiazol-5-yl)-N-[4-(morpholin-4-yl)phenyl]pyrimidin-2-amine, 5]	–	–	2400 nM	–
CNc1nc(C)c(-c2ccnc(Nc3cccc(CN)c3)n2)s1 [Aminopyrimidine, 1]	–	–	230 nM	410 nM
CCNc1nc(C)c(-c2ccnc(Nc3cccc(CN)c3)n2)s1 [Aminopyrimidine, 2]	–	–	110 nM	330 nM
CNc1nc(C)c(-c2ccnc(Nc3cccc(CNC(C)=O)c3)n2)s1 [Aminopyrimidine, 3]	–	–	890 nM	430 nM
Cc1nc(C)c(-c2ccnc(Nc3ccc(N)cc3)n2)s1 [Aminopyrimidine, 4]	–	–	3800 nM	230 nM
Cc1nc(C)c(-c2ccnc(Nc3ccc(N4CCOCC4)cc3)n2)s1 [Aminopyrimidine, 5]	–	–	4000 nM	2000 nM
Cc1nc(C)c(-c2ccnc(Nc3ccc(N4CCNCC4)cc3)n2)s1 [Aminopyrimidine, 6]	–	–	640 nM	1100 nM
Cc1nc(C)c(-c2ccnc(Nc3ccc(N4CCN(C)CC4)cc3)n2)s1 [Aminopyrimidine, 7]	–	–	160 nM	1020 nM
Cc1nc(C)c(-c2ccnc(Nc3ccc(N4CCN(CCO)CC4)cc3)n2)s1 [Aminopyrimidine, 8]	–	–	430 nM	2200 nM
CNc1nc(C)c(-c2ccnc(Nc3ccc(N4CCNCC4)cc3)n2)s1 [Aminopyrimidine, 10]	–	–	7 nM	–
COc1ccc(OC)c2c(=S)c3ccccc3[nH]c12 [NSC625987]	> 100000 nM	200 nM	–	–
